In test [1] the target is T1, VBC and Brd2BD1 (Homo sapiens, UniProt P25440+P40337).
T1 construct: VHL (54–213), ElonginC (17–112) and; Brd2BD1 (71–194),; His6 (N, cleaved yes); made in house; host or cells: E. coli BL21(DE3)
Briefly: ITC ternary complex formation, VBC titrated into PROTAC:Brd2BD1. The test is classed as binding. The settings on record: for α (cooperativity): Kd binary,VBC/Kd ternary; for α (cooperativity) / ΔΔG: Brd2BD1; for Kd / ΔG / ΔH / –TΔS: PROTAC:Brd2BD1 in cell, VBC in syringe; for ΔΔG: ternary vs binary. An excerpt:
structure (C2 R, C3 S, C4 R) assumed on the basis of unchanging stereogenic centres in the synthesis.
Final R(F) = 0.033, wR(F 2) = 0.085 for 275 parameters and 3901 reflections with I > 2σ(I) (corresponding R-values based on all 4067 reflections = 0.035 and 0.086, respectively), CCDC […]
Protein expression and purification.
Wild-type versions of human proteins VHL (UniProt accession number: P40337), ElonginC […]
expression. For expression of VBC, N-terminally His6-tagged VHL (54–213), ElonginC (17–112) and ElonginB (1–104) were co- expressed in Escherichia coli BL21(DE3) at 24 °C for 16 h using 0.3 mM isopropyl β-D -1-thiogalactopyranoside (IPTG). E. coli cells were lysed using a pressure cell homogenizer (Stansted Fluid Power) and lysate clarified by centrifugation. His6-tagged VCB was purified on a HisTrap FF affinity column (GE Healthcare) by elution with an imidazole gradient. The His6tag was removed using TEV protease and the untagged complex dialyzed into low -concentration imidazole buffer. VCB was then flowed through the HisTrap FF column a second time, allowing impurities to bind, as the complex eluted without binding. VCB was then additionally purified by anion exchange and size-exclusion chromatography using ResourceQ and Superdex-75 columns (GE Healthcare), respectively. The final purified complex was stored in 20 mM Bis–Tris, pH 7, 150 mM sodium chloride and 1 mM dithiothreitol (DTT). Brd2BD1 (71–194), and Brd4BD2 (333–460) were expressed with an N-terminal His6 tag in E. coli BL21(DE3) at 18 °C for 20 h using 0.2 mM IPTG.
His6-tagged BDs were purified on nickel Sepharose 6 fast flow beads (GE Healthcare) by elution with increasing concentrations of imidazole. For crystallography the His6-tagged BD was cleaved with TEV protease and dialyzed into low-concentration imidazole buffer. The BD was then flowed over the nickel beads a second time to remove impurities and protease. BDs were then additionally purified by size-exclusion chromatography using a Superdex-75 column. The BDs were purified by size-exclusion chromatography using a Superdex-75 column. The final purified proteins were stored in 20 mM 4-(2-hydroxyethyl)-1-piperazineethanesulfonic acid (HEPES), pH 7.5, 150 mM sodium chloride and 1 mM DTT. All chromatography purification steps were performed using Äkta FPLC purification systems (GE Healthcare) or glass econo-columns (Bio-Rad) at room temperature.
Isothermal titration calorimetry (ITC) of peptides and ligands
Titrations were performed on an ITC200 micro-calorimeter (GE Healthcare). The peptides were dissolved in buffer (20 mM Bis–Tris propane, 100 mM NaCl, 1 mM tris(2-carboxyethyl)phosphine […]
(TCEP), pH 7.4) at 100 µM. The compounds were titrated against 10 µM VBC complex, equilibrated in the same buffer. The titrations consisted of 20 injections of 2 µL of peptide solution at a rate of 0.5 µL/s at 120 s time intervals. An initial injection of ligand (0.4 µL) was made and discarded during data analysis. All experiments were performed at 25°C while stirring at 650 rpm.
Ligands 14a- b were diluted from DMSO stock solution to 300 µM in buffer (20 mM Bis-Tris propane, 150 mM NaCl, 1 mM TCEP, pH 7.4). The compounds were titrated against 30 µM VBC complex, equilibrated in the same buffer. The final concentration of DMSO in each experiment was […]
The data were fitted to a single-binding-site model using the MicroCal PEAQ-ITC analysis software provided by the manufacturer to obtain the stoichiometry n, the dissociation constant K d, and the enthalpy of binding ΔH . The reported values are the mean ± s.e.m. from independent measurements.
Isothermal titration calorimetry (ITC)of PROTACs
The titrations were all performed as reverse mode (protein in syringe, ligand in cell) and consisted of 19 injections of 2 µl protein solution (20 mM Bis–Tris propane, 100 mM NaCl, 1 mM tris(2-carboxyethyl)phosphine (TCEP), pH 7.4) at a rate of 0.5 µl/s at 120 s time intervals. An initial injection (0.4 µl) was made and discarded during data analysis. […]

The target in test [2] is T2, Brd2 (Homo sapiens, UniProt P25440).
T2 construct: endogenous in cells; host or cells: HeLa
Briefly: BET protein degradation in HeLa cells, Western blot. Type of test: cell-based. The conditions noted are these: 24 h. The protocol: (§1) HeLa and A549 cells were kept in DMEM (Gibco) supplemented with 10%(v/v) FBS (Gibco), 2 mM L-glutamine (Gibco), penicillin (100 units /mL) and streptomycin (100 µ g/mL) (Gibco). MV4;11 cells were kept in RPMI 1640 supplemented with 10%(v/v) FBS (Gibco), 2 mM L-glutamine (Gibco), penicillin (100 units /mL) and streptomycin (100 µg/mL) (Gibco). Cells were kept at 37 °C, 5% CO2.
(§2) Testing compounds in cells
(§3) HeLa cells (3 x 105) were seeded onto each well on a six-well plate 24 h before treatment with test compounds. To treat the cells with the test compounds, medium was replaced with fresh medium containing specified concentration of test compounds for specified time. At the end of treatment, cells were washed with PBS and then were lysed by applying RIPA buffer (Sigma, R0278) supplemented with Protease inhibitor (Roche, # 04693159001) and Benzonase (Sigma, E1014). Lysate was clarified by centrifugation (20,000 x g, 10 min, 4 °C). Supernatant was collected and protein concentration of was determined by BCA assay. The rest of the clarified lysate was kept at -80° C before further […]
(§4) Protein on gel was transferred to nitrocellulose membrane using Bio-Rad Transblot system according to manufacturer guidelines. Blots were probed with anti- Brd4 (AbCam, ab128874), anti-Brd3 (AbCam, ab50818), anti- Brd2 (AbCam, ab139690) and anti-β-actin (Cell Signaling, no. 4970) antibodies. Blots were developed with secondary anti-mouse IgG (Licor, 926-32210) or anti-rabbit IgG (Licor, 926- 32213) antibodies from Licor and bands visualized using Bio-Rad ChemiDoc MP […]
(§5) Western Blot Quantification#
(§6) Image processing and band intensity quantification were performed using Bio-Rad Image Lab software version 6.0.0. Reported band intensities are normalized to loading control, i.e., β-actin or tubulin for total lysates.
Background: In western blotting, separated proteins are transferred to a membrane and probed.

In test [3] the target is T3, Brd3 (Homo sapiens, UniProt Q15059).
T3 construct: endogenous in cells; host or cells: HeLa
Described as above. Type of test: cell-based. The conditions noted are these: 24 h. As for the experimental part:
as §1, §2, §3, §4, §5, §6

T1 sequence (P40337 54-213): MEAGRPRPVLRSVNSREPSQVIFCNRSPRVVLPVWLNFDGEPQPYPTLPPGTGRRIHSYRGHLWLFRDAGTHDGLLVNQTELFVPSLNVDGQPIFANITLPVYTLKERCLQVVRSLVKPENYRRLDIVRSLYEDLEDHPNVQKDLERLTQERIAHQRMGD
T1 sequence (Q15369 17-112 partner limits assumed): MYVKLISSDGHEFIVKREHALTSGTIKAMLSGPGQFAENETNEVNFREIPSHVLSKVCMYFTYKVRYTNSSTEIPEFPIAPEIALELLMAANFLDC
T1 sequence (Q15370 1-104 partner limits assumed): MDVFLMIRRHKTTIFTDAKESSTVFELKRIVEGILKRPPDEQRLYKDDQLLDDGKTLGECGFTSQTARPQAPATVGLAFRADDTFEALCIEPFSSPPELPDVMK
T1 sequence (P25440 71-194): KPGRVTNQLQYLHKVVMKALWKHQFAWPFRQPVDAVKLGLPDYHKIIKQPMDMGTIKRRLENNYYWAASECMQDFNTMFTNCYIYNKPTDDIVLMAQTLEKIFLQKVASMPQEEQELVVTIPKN
T3 sequence (Q15059 whole entry): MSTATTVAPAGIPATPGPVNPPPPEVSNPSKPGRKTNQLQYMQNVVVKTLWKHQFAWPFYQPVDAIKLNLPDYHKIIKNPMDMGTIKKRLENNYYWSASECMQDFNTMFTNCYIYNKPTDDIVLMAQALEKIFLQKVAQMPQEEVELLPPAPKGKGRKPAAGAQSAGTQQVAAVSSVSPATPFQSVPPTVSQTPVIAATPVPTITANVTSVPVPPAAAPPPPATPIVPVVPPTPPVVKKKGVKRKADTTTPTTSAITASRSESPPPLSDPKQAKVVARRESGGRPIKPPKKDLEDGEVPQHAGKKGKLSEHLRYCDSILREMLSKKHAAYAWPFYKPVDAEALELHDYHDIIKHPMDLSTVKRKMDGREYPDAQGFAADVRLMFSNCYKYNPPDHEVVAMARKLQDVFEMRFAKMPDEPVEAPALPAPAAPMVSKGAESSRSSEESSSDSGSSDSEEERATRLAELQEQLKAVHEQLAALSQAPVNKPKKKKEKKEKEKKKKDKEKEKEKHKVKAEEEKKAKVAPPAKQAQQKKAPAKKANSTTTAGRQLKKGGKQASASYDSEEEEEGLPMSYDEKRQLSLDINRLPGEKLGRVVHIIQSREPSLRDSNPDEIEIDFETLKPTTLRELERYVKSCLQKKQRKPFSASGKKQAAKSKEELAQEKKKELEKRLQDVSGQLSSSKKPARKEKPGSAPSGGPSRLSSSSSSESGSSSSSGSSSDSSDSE
T2 sequence (P25440 whole entry): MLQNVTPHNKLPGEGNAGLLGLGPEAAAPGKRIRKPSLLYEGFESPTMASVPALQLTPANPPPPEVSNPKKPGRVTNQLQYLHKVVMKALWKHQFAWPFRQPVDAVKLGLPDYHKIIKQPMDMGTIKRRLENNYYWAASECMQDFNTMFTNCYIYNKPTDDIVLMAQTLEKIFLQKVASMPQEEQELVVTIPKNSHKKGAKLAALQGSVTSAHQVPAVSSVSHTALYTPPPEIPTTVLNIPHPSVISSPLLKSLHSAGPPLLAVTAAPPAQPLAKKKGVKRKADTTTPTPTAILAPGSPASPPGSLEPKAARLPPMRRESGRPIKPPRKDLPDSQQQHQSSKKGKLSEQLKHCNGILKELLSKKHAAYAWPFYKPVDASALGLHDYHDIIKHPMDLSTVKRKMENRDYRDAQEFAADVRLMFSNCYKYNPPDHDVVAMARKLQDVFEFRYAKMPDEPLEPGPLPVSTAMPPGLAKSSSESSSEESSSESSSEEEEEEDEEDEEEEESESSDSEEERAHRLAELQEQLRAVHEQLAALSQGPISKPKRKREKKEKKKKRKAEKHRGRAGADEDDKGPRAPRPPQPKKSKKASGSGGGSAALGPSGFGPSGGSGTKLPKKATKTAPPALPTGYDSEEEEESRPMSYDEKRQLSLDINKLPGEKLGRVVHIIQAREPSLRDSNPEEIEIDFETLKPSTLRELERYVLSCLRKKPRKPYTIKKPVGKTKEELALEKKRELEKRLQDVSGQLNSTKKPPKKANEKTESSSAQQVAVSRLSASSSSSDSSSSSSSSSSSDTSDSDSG

For the compound `Cc1ncsc1-c1ccc(CNC(=O)[C@@H]2[C@@H](F)[C@@H](O)CN2C(=O)[C@@H](NC(=O)COCCOCCOCCNC(=O)C[C@@H]2N=C(c3ccc(Cl)cc3)c3c(sc(C)c3C)-n3c(C)nnc32)C(C)(C)C)cc1` [15a], in test [1], the “α (cooperativity)” value worked out at 3.9; the Kd (in general, the equilibrium constant for the complex coming apart) was determined as 64 ± 3 nM; the ΔG is -9.85 ± 0.05 kcal/mol; the ΔH is -9.17 kcal/mol. Also, in test [1], the “–TΔS” value was -0.6 ± 0.6 kcal/mol and the ΔΔG is -0.85 kcal/mol. Further, the DC50 – broadly, the concentration giving 50% degradation – in test [2] is about 10 nM. For the same compound, the DC50 in test [3] was about 10 nM.

For the compound `Cc1ncsc1-c1ccc(CNC(=O)[C@@H]2[C@H](F)[C@@H](O)CN2C(=O)[C@@H](NC(=O)COCCOCCOCCNC(=O)C[C@@H]2N=C(c3ccc(Cl)cc3)c3c(sc(C)c3C)-n3c(C)nnc32)C(C)(C)C)cc1` [15b], in test [1], the “α (cooperativity)” value amounted to 1.2, binding was put at a Kd of 500 ± 96 nM, the ΔG is reported as -8.6 ± 0.1 kcal/mol and the ΔH is listed as -5.1 ± 0.2 kcal/mol. In test [1], the “–TΔS” value is -3.6 ± 0.3 kcal/mol and the ΔΔG is -0.1 ± 0.1 kcal/mol. In test [2], this compound registered a DC50 of about 3000 nM. The compound further gave a DC50 in test [3] of about 3000 nM.

Source of the values: publication PMC6430500, “3-Fluoro-4-hydroxyprolines: Synthesis, Conformational Analysis, and Stereoselective Recognition by the VHL E3 Ubiquitin Ligase for Targeted Protein Degradation” (Journal of the American Chemical Society, 2018).
